What was measured:
Substance-P receptor = Substance-P receptor (Homo sapiens, UniProt P25103); test: Displacement of [125I]-labeled substance P from the cloned human Tachykinin receptor 1 expressed in CHO cells; format: cell-based
Gerbillinae [1] = test: Ability to inhibit the foot tapping in gerbil immediately following central infusion of GR-73632 (agonist), 5 min after intravenous administration of compound; format: functional; details: read-out: ID50 (the source's name)
Mustela putorius furo [2] = test: Compound was tested for inhibition of emetic response in ferret by administering perorally following emetogen challenge after 60 min (po); format: functional
Mustela putorius furo [3] = test: Compound was tested for inhibition of emetic response in ferret by administering intravenously following emetogen challenge after 3 min (iv); format: functional
[4] = Half-life in Dog; format: ADME, organism-based, Canis lupus familiaris; details: in vivo
[5] = Bioavailability in dog; format: ADME, organism-based, Canis lupus familiaris; details: in vivo
[6] = Bioavailability in rat; format: ADME, organism-based; details: in vivo
[7] = Half-life in rat; format: ADME, organism-based; details: in vivo
Gerbillinae [8] = test: Ability to inhibit the foot tapping in gerbil immediately following central infusion of GR-73632 (agonist), 5 min after intravenous administration of compound (1 mg/kg); format: functional

Chain of Substance-P receptor (P25103 whole entry, the tested form may be a part): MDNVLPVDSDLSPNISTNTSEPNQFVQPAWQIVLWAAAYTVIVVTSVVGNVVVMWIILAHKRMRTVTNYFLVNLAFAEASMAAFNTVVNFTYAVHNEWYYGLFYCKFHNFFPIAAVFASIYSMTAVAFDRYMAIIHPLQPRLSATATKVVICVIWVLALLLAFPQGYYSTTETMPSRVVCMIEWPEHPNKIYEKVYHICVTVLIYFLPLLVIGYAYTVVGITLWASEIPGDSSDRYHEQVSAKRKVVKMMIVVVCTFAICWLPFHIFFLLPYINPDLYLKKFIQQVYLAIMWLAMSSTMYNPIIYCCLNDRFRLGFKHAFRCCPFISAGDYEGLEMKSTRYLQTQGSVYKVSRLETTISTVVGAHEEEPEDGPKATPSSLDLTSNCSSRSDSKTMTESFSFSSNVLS

Row | IC50 (Substance-P receptor) [nM] | Compound | ED50 (Gerbillinae [1]) [mg/kg] | further results
1 | 49 | COc1ccccc1C1=CC2(CCCNC2c2ccccc2)OC1 (stereo not given) | – | –
2 | 6.5 | COc1ccccc1[C@H]1COC2(CCCNC2c2ccccc2)C1 (stereo not given in full) | – | –
3 | 0.11 | COc1ccc(-n2nnnc2C(F)(F)F)cc1[C@H]1COC2(CCCN(Cc3c[nH]cn3)C2c2ccccc2)C1 (stereo not given in full) | 0.5 | –
4 | 0.08 | COc1ccc(-n2nnnc2C(F)(F)F)cc1C1=CC2(CCCN[C@H]2c2ccccc2)OC1 (stereo not given in full) | 0.1 | –
5 | 0.3 | COc1ccc(OC(F)(F)F)cc1[C@H]1COC2(CCCN[C@H]2c2ccccc2)C1 (stereo not given in full) | 0.3 | ID90 (Mustela putorius furo [2]): 3 mg/kg; ID90 (Mustela putorius furo [3]): 1 mg/kg
6 | 0.35 | COc1ccc(OC(F)(F)F)cc1C1=CC2(CCCNC2c2ccccc2)OC1 (stereo not given) | 0.2 | –
7 | 0.11 | COc1ccc(-n2nnnc2C(F)(F)F)cc1[C@H]1COC2(CCCNC2c2ccccc2)C1 (stereo not given in full) | 0.1 | half-life [4]: 162 min; bioavailability [5]: 79%; ID90 (Mustela putorius furo [2]): 1 mg/kg; bioavailability [6]: 16%; ID90 (Mustela putorius furo [3]): 0.2 mg/kg; half-life [7]: 102 min
8 | 0.1 | COc1ccc(-n2nnnc2C(F)(F)F)cc1[C@H]1COC2(CCCN(Cc3n[nH]c(O)n3)C2c2ccccc2)C1 (stereo not given in full) | – | Inhibition (Gerbillinae [8]): 6%
9 | 0.89 | COc1ccc(OC(F)(F)F)cc1[C@H]1COC2(CCCN(Cc3nc[nH]n3)C2c2ccccc2)C1 (stereo not given in full) | – | Inhibition (Gerbillinae [8]): 45%
10 | 133 | c1ccc([C@H]2COC3(CCCN[C@H]3c3ccccc3)C2)cc1 (stereo not given in full) | – | –
